# Assay: Solubility of tenofovir in the aqueous neutralization solution
# Format: physicochemical
# Method: The present invention also relates to a method of adding a defined proportion of calcium hydride to magnesium butoxide that is a catalyst commonly used in the synthesis of DEPMPA from HPA to shorten the reaction time from 18 hours to 6 hours or less and cause the production of toluene calcium sulfonate to reduce highly deliquescent substances, and using an ion-exchange resin (Dowex 50W, sulfonic acid cation exchange resin) after neutralization with a counter-alkali solution in the dealcoholizing hydrolysis of the ester compound into tenofovir, thereby to reach a precise isoelectric point (pH 3.2) and further increase the synthesis yield of tenofovir. Generally, when the pH value is 2.5 to 3.5 in the neutralization, tenofovir (H2O, one-molecule crystal water) is dissolved in the aqueous solution at about 7 percent. When the neutralization is perfectly performed with the ion-exchange resin, the solubility of tenofovir can be reduced to 4 percent or below.
structure (smiles),measurement,setting,value
"C[C@H](Cn1cnc2c(N)ncnc21)OCP(=O)(O)O [tenofovir, (R)-9-[2-(phosphonomethoxy)propyl]adenine]",solubility of tenofovir,neutralization perfectly performed with the ion-exchange resin,≤ 4%
same,tenofovir dissolved in the aqueous solution,"pH 2.5 to 3.5 in the neutralization, tenofovir H2O, one-molecule crystal water",about 7%

# — US10155007B2, “Synthesis method for improved tenofovir disoproxil fumarate using ion-exchange resin and method for preparing oral dissolving film form using the same” (Firson, priority 2014, dated 2018)
